Assay type in all cases: in vivo
In experiment [1] the test system is Peas (Pisum sativum). As to the kind of experiment: Soil incorporation (attaclay/sand dust), growth regulatory or herbicidal effects, peas. Conditions: Lathyrus oleraceus, 504 h, 21 days, 0=no effect, read-out: growth regulatory or herbicidal effect score; for pest or weed control at 26 µg/mL: soil incorporation 26 ppm, 100=complete kill. The gist of the method:
(§1)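 Compounds formulated as attaclay/sand dust, incorporated into John Innes I compost at 26 ppm w/v (≈11.2 kg/ha) or 130 ppm w/v (≈56 kg/ha); seeds sown in treated soil, held 21 days at 22° C, 65-85% RH, 14 h light at 13,000 lux. Visual scoring versus untreated control, 0 (no effect) to 100 (complete kill).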

The subject of experiment [2] is Mustard (Sinapis alba). The experiment is described as follows: Soil incorporation (attaclay/sand dust), growth regulatory or herbicidal effects, mustard. Conditions: 504 h, 21 days, 0=no effect, read-out: growth regulatory or herbicidal effect score; for pest or weed control at 26 µg/mL: soil incorporation 26 ppm, 100=complete kill. The gist of the method:
as §1

Experiment [3] concerns Linseed (Linum usitatissimum). As to the kind of experiment: Soil incorporation (attaclay/sand dust), growth regulatory or herbicidal effects, linseed. Conditions: 504 h, 21 days, 0=no effect, read-out: growth regulatory or herbicidal effect score; for pest or weed control at 26 µg/mL: soil incorporation 26 ppm, 100=complete kill. The gist of the method:
as §1

For another experiment, the system named is Maize (Zea mays). The experiment is described as follows: Soil incorporation (attaclay/sand dust), growth regulatory or herbicidal effects, maize. Conditions: 504 h, 21 days, 0=no effect, read-out: growth regulatory or herbicidal effect score; for plant injury at 26 µg/mL: soil incorporation 26 ppm, 100=complete kill. The gist of the method: as §1
Another experiment relates to Oats (Avena sativa). The experiment is described as follows: Soil incorporation (attaclay/sand dust), growth regulatory or herbicidal effects, oats. Conditions: 504 h, 21 days, 0=no effect, read-out: growth regulatory or herbicidal effect score; for plant injury at 26 µg/mL: soil incorporation 26 ppm, 100=complete kill. The method, boiled down: as §1
Experiment [4] has as its system Ryegrass (Lolium perenne). The experiment is described as follows: Soil incorporation (attaclay/sand dust), growth regulatory or herbicidal effects, ryegrass. Conditions: 504 h, 21 days, 0=no effect, read-out: growth regulatory or herbicidal effect score; for pest or weed control at 26 µg/mL: soil incorporation 26 ppm, 100=complete kill. The gist of the method: as §1

Experiment [5] deals with Wheat (Triticum aestivum). The experiment is described as follows: Pre-emergence soil surface spray, wheat. Conditions: soil surface spray 2.8 kg/ha, 21 days, 0=no effect, 100=complete kill. An excerpt: (§2) Seeds of the plant species listed below were sown in John Innes I potting compost in aluminium pans, 19 cm long×9.5 cm wide×5.0 cm high, one species per pan. The soil surface was then sprayed with a compound listed below, formulated as a solution in 1:1 by volume aqueous acetone except for the compound of Example 44 which was formulated as an aqueous suspension containing 1000 parts per million of the wetting agent Lissapol NX (nonylphenol/ethylene oxide condensate). Each compound was applied at a rate of 2.8 kg of active ingredient per hectare in 450 liters of spray liquid per hectare. The pans were then watered, and placed in a controlled environment room (22° C., relative humidity 65-85%, 14 hours per day artificial illumination at 17,000 lux) for 21 days. The plants were then visually assessed for any growth regulatory or herbicidal effects. All differences from an untreated control were scored on a scale from 0-100, where 0 signifies no effect and 100 signifies complete kill.

Experiment [6] deals with Barley (Hordeum vulgare). The experiment is described as follows: Pre-emergence soil surface spray, barley. Conditions: soil surface spray 2.8 kg/ha, 21 days, 0=no effect, 100=complete kill.
From the text: as §2

For another experiment, the system named is Wild Oat (Avena fatua). The experiment is described as follows: Pre-emergence soil surface spray, wild oat. Conditions: soil surface spray 2.8 kg/ha, 21 days, 0=no effect, 100=complete kill.
From the text: as §2

The test system of experiment [7] is Blackgrass (Alopecurus myosuroides). As to the kind of experiment: Pre-emergence soil surface spray, blackgrass. Conditions: soil surface spray 2.8 kg/ha, 21 days, 0=no effect, 100=complete kill.
From the text: as §2

The subject of experiment [8] is Barnyardgrass (Echinochloa crus-galli). The experiment is described as follows: Pre-emergence soil surface spray, barnyardgrass. Conditions: soil surface spray 2.8 kg/ha, 21 days, 0=no effect, 100=complete kill.
From the text: as §2

In experiment [9] the test system is Crabgrass (Digitaria sanguinalis). As to the kind of experiment: Pre-emergence soil surface spray, crabgrass. Conditions: soil surface spray 2.8 kg/ha, 21 days, 0=no effect, 100=complete kill.
From the text: as §2

The test system of the next experiment is Rice (Orysae sotiva). The experiment is described as follows: Pre-emergence soil surface spray, rice. Conditions: soil surface spray 2.8 kg/ha, 21 days, 0=no effect, 100=complete kill.
From the text: as §2

Experiment [10] has as its system Wheat (Triticum aestivum). The experiment is described as follows: Post-emergence foliar spray of monocotyledons, wheat. Conditions: foliar spray 2.8 kg/ha, 14 days, 0=no effect, 100=complete kill. On the procedure: (§3) Seeds of the monocotyledon species listed below were sown in anodised aluminium pans, 19 cm long×9.5 cm wide×5.0 cm deep, containing John Innes I potting compost. They were then watered and placed in a controlled environment room (22° C.; 65-85% relative humidity; 14 hours per day artificial illumination at 17,000 lux). 14 days after sowing, the seedlings were given a foliar spray of the compound of Example 44, formulated as an aqueous suspension together with 2000 ppm of the wetting agent Lissapol NX. The dosage rate was adjusted to be 2.8 kg active ingredient in 450 liters per hectare. After a further 14 days in the controlled environment room, the plants were visually assessed for any growth regulatory or herbicidal effect. All differences from an untreated control were scored on a scale from 0-100 where 0 signifies no effect and 100 signifies complete kill.
(§4) The compounds listed below were tested according to the procedure of Example 66 but including rice (Oryza sativa) as an additional test species.

Experiment [11] relates to Barley (Hordeum vulgare). The experiment is described as follows: Post-emergence foliar spray of monocotyledons, barley. Conditions: foliar spray 2.8 kg/ha, 14 days, 0=no effect, 100=complete kill. The method, then:
as §3, §4

In experiment [12] the test system is Barnyardgrass (Echinochloa crus-galli). The experiment is described as follows: Post-emergence foliar spray of monocotyledons, barnyardgrass. Conditions: foliar spray 2.8 kg/ha, 14 days, 0=no effect, 100=complete kill. On the procedure:
as §3, §4

Experiment [13] concerns Peas (Pisum sativum). As to the kind of experiment: Post-emergence foliar spray, herbicidal/growth regulant response, peas. Conditions: Lathyrus oleraceus, 168 h, foliar spray 11.2 kg/ha, 7 days, 0=no effect, 100=complete kill, read-out: herbicidal or growth regulant response index. The method, boiled down: (§5)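 Seedlings grown in potting compost at 22 °C, 14 h light, sprayed 14 days after sowing with compound in 1:1 aqueous acetone at 11.2 kg/ha in 450 l/ha. Visual scoring of herbicidal or growth-regulant response after 7 days versus untreated control, 0 = no effect to 100 = complete kill.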

Experiment [14] deals with Mustard (Sinapis alba). The experiment is described as follows: Post-emergence foliar spray, herbicidal/growth regulant response, mustard. Conditions: 168 h, foliar spray 11.2 kg/ha, 7 days, 0=no effect, 100=complete kill, read-out: herbicidal or growth regulant response index. The method, boiled down: as §5
Experiment [15] concerns Linseed (Linum usitatissimum). The experiment is described as follows: Post-emergence foliar spray, herbicidal/growth regulant response, linseed. Conditions: 168 h, foliar spray 11.2 kg/ha, 7 days, 0=no effect, 100=complete kill, read-out: herbicidal or growth regulant response index. The gist of the method:
as §5

The subject of experiment [16] is Ryegrass (Lolium perenne). As to the kind of experiment: Post-emergence foliar spray, herbicidal/growth regulant response, ryegrass. Conditions: 168 h, foliar spray 11.2 kg/ha, 7 days, 0=no effect, 100=complete kill, read-out: herbicidal or growth regulant response index. The gist of the method:
as §5

Experiment [17] relates to Sugarbeet (Beta vulgaris). As to the kind of experiment: Post-emergence foliar spray, herbicidal/growth regulant response, sugarbeet. Conditions: 168 h, foliar spray 11.2 kg/ha, 7 days, 0=no effect, 100=complete kill, read-out: herbicidal or growth regulant response index. The gist of the method: as §5
Another experiment concerns Oat (Avena sativa). The experiment is described as follows: Post-emergence foliar spray, herbicidal/growth regulant response, oat. Conditions: 168 h, foliar spray 11.2 kg/ha, 7 days, 0=no effect, 100=complete kill, read-out: herbicidal or growth regulant response index. The gist of the method: as §5
Experiment [18] has as its system French beans (Phaseolus vulgaris). As to the kind of experiment: Post-emergence foliar spray, herbicidal/growth regulant response, French beans. Conditions: foliar spray 11.2 kg/ha, 7 days, 0=no effect, 100=complete kill. On the procedure:
Seeds of the plant species listed below were sown in anodised aluminium pans, 19 cm long×9.5 cm wide×5 cm deep, containing John Innes I potting compost. They were then watered and placed in a controlled environment room (22° C.; 65-85% relative humidity; 14 hours per day artificial illumination at 13,000 lux). Fourteen days after sowing, the seedlings received a foliar spray of a compound listed below, formulated as a solution in 1:1 by volume aqueous acetone. The concentration of active ingredient and volume of application were adjusted so as to be equivalent to a rate of 11.2 kg/ha in 450 liters per hectare. After seven days growth in the controlled environment room, the plants were visually assessed for any herbicidal or growth regulant response. All differences from the untreated control were scored according to an index where 0=no effect and 100=complete kill.
The product of Example 95 was tested according to the procedure of Examples 49-55.

A further experiment relates to Cotton. As to the kind of experiment: Soil incorporation (I), cotton. Conditions: I soil incorporation 6.5 ppm, 21 days, 0=no effect, 100=complete suppression. The text has this: (§6) Each of the compounds listed below was formulated as: […]
(§7) (I) an attaclay/sand dust and incorporated in John Innes I potting compost at a rate equivalent to 6.5 and 3.25 parts per million weight/volume of active ingredient to soil and placed in anodised aluminium pans, 19 cm long×9.5 cm wide×5.0 cm high. This is approximately equivalent to a surface application of 2.8 and 1.4 kg active ingredient per hectare cultivated to a depth of 5 cm. Seeds of the species listed below were sown in the treated soil, one species per pan, watered and placed in a controlled environment room (22° C.; 65-85% relative humidity and 14 hours artificial illumination at 17,000 lux) for 21 days.
(§8) The plants were then visually assessed for any growth regulatory or herbicidal effects. All differences from an untreated control were scored on a scale from 0-100, where 0 signifies no effect and 100 signifies complete suppression.
(§9) The results are shown in the following table where I stands for soil incorporation and II for surface spray.

The subject of another experiment is Tomato. As to the kind of experiment: Soil incorporation (I), tomato. Conditions: I soil incorporation 6.5 ppm, 21 days, 0=no effect, 100=complete suppression.
From the text: as §6, §7, §8, §9

The subject of a further experiment is Carrot. As to the kind of experiment: Soil incorporation (I), carrot. Conditions: I soil incorporation 6.5 ppm, 21 days, 0=no effect, 100=complete suppression.
From the text: as §6, §7, §8, §9

A further experiment relates to Chickweed. As to the kind of experiment: Soil incorporation (I), chickweed. Conditions: I soil incorporation 6.5 ppm, 21 days, 0=no effect, 100=complete suppression.
From the text: as §6, §7, §8, §9

The test system of another experiment is Mustard. As to the kind of experiment: Soil incorporation (I), mustard. Conditions: I soil incorporation 6.5 ppm, 21 days, 0=no effect, 100=complete suppression.
From the text: as §6, §7, §8, §9

A further experiment has as its system Fathen. The experiment is described as follows: Soil incorporation (I), fathen. Conditions: I soil incorporation 6.5 ppm, 21 days, 0=no effect, 100=complete suppression.
From the text: as §6, §7, §8, §9

Where [19] appears, read: soil incorporation 130 ppm, 100=complete kill/suppression.

As to `CS(=O)(=O)N(CC#N)c1ccc(Cl)c(Cl)c1` [Example 44, N-cyanomethyl-3,4-dichloro-methanesulphonanilide], the pest or weed control at 26 µg/mL was 0% with Peas (Pisum sativum) [1], 40% in the experiment on Mustard (Sinapis alba) [2], 20% in experiment [3] and 5% in experiment [4]. For the same compound, the figures for the plant injury at 26 µg/mL in the experiment on Maize (Zea mays) and with Oats (Avena sativa) were 5% and 60%, respectively. Besides, the “growth regulatory or herbicidal effect score” value is 0 in [5]; 0 in the experiment with Barley (Hordeum vulgare) [6]; 0 in the experiment with Wild Oat (Avena fatua); 0 in experiment [7]; 80 in experiment [8]; 0 in [9]. Further, the “growth regulatory or herbicidal effect score” value with Rice (Orysae sotiva) was 0; in experiment [10], 0; in the experiment on Barley (Hordeum vulgare) [11] it was 0; in [12], 100.
Turning to `CCOC(=O)C(CC)N(c1c(C)cccc1C)S(C)(=O)=O` (centres unmarked) [Example 95], the pest or weed control at 11200 g/ha amounted to 15% in the experiment on Peas (Pisum sativum) [13], 100% in the experiment on Mustard (Sinapis alba) [14], 25% in experiment [15] and 15% in experiment [16]. The figures for the plant injury at 11200 g/ha (in experiment [17]; in the experiment on Oat (Avena sativa)) were 100% and 20%, respectively. Further, the “herbicidal or growth regulant response index” value in [18] amounted to 100. In addition, the pest or weed control at 26 µg/mL worked out at 20% in the experiment with Peas (Pisum sativum) [1], 90% in the experiment on Mustard (Sinapis alba) [2], 0% in experiment [3] and 90% in [4]. For the same compound, the pest or weed control at 130 µg/mL with Peas (Pisum sativum) [1] (setting [19]) amounted to 30%; in the experiment on Mustard (Sinapis alba) [2] (setting [19]), 100%; in experiment [3] (setting [19]) it was 80%; in experiment [4] (setting [19]), 100%. For the same compound, the figures for the plant injury at 26 µg/mL in the experiment on Maize (Zea mays) and with Oats (Avena sativa) were 50% and 0%, respectively. Further, the plant injury at 130 µg/mL in the experiment with Maize (Zea mays) (setting [19]) and with Oats (Avena sativa) (setting [19]) was 100% in each case. For the same compound, the “growth regulatory or herbicidal effect score” value in the experiment on Cotton came to 5; in the experiment with Tomato, 90; with Carrot it was 0; with Chickweed, 90; with Mustard it was 50; in the experiment on Fathen, 100.

These data come from US4309559A, “Sulphonamides useful as pesticides” (FBC Limited, priority 1977, dated 1982).
